In patent US20150352131A1, “Compositions and Methods for the Prevention and Treatment of Osteolysis and Osteoporosis” (RHODE ISLAND HOSPITAL, priority 2013, published 2015):
“Also recorded” adds a separate entry of the source. Read-outs that look alike come from different tables or passages of the source.

Legend:
[1] = orthopedic implant; cited from earlier work
prostate cancer = details: delivered as loaded nanoparticles conjugated to T cells; cited from earlier work
[2] = mice given NSC-87877, cited from earlier work
[3] = tested on: BM-derived pre-osteoclast cultures (wild type bone marrow cells); experiment: TRAP staining of multinucleated osteoclasts in ex vivo osteoclast culture; type: cell-based, mice; details: FIG. 5: NSC-87877 50 nM, Aldronates 25 nM, or combination
Experimental: Whole bone marrow (BM) was flushed from the explanted femurs and tibiae of euthanized mice with DMEM (Invitrogen, N.Y), and centrifuged at 1,500 rpm for 5 minutes. The pelletized cells were resuspended in red blood cell (RBC) lysis buffer, re-centrifuged at 1,500 rpm for 5 minutes, and then cultured in macrophage medium (DMEM supplemented with 10% FBS, 1% penicillin/streptomycin, and 10 ng/mL M-CSF) at 37° C. and 5% CO2 for 3 days (Tanaka S, et al. (1993) J Clin Invest 91(1):257-63) in either 100 mm tissue culture dishes, 4-well or 8-well chamber slides, or 48-well or 96-well tissue culture plates. The medium was changed every other day. To induce osteoclastogenic differentiation, BM cells cultured for 3 days in macrophage medium were further cultured for 5-7 days in osteoclast differentiation medium (DMEM supplemented with 10% FCS, 10 ng/mL M-CSF, and 100 ng/mL RANKL) (McHugh K P, et al. (2000) J Clin Invest 105(4):433-40; Zou W, et al. (2008) Mol Cell 31(3):422-31). These BM-derived osteoclasts were primarily used for the various assays in this study. […] TRAP^+ multinucleated osteoclasts (>3 nuclei) were quantified with the use of a Nikon digital microscope. Osteoclast-mediated bone resorptive activity was quantified using the pit assay (Xu D, et al. (2004) Biochemical Journal 383(Pt 2):219-225). […]

osteoclasts = experiment: Pit assay, osteoclast-mediated bone resorption on dentin slices; type: cell-based, mice
Description: TRAP staining was used to identify multinucleated osteoclasts in osteoclastogenic cell cultures or tibia section. Briefly, tibia from control and Shp2 mutant mice were fixed in 4% paraformaldehyde overnight and then decalcified in EDTA solution (14%) till bone tissue was soft. The specimens were then dehydrated according standard procedures and embedded for sectioning. TRAP^+ multinucleated osteoclasts (>3 nuclei) were quantified with the use of a Nikon digital microscope. Osteoclast-mediated bone resorptive activity was quantified using the pit assay (Xu D, et al. (2004) Biochemical Journal 383(Pt 2):219-225). Ethanol-sterilized slices of bovine bone were disposed in individual wells of a 48 well/plate with 1 mL osteoclast culture medium containing 2.5×10^4 BM macrophages (BMM) per well. After 8 to 10 days, all cellular components were removed from bone slices with a brief (10 minute) treatment with 5% sodium hypochlorite. […] The effect of Shp2 inhibition on osteoclast-mediated bone resorption was also studied in order to further test whether pharmacological inhibition of Shp2 could serve as a treatment modality. BMM were cultured on dentin slices in osteoclast medium and in the presence or absence of Shp2 inhibitor NSC-87877 (50 μM) (FIGS. 10A-B).

[4] = tested on: osteoclastogenic genes c-Fos, Nfatc1, MMP9, Trap, and Ctsk in bone marrow derived macrophages (BMM); experiment: qRT-PCR of osteoclastogenic gene expression in BMM induced by polyethylene or titanium particles; type: cell-based, mice; details: BMM with PeP or TiP, NSC87877 50 uM, 5 days of culture, normalized to GAPDH
Experimental: The average size of PeP and TiP is about […] in diameter (FIGS. 8A-B), within the range of orthopedic implant debris size; these particles can be efficiently engulfed by BMM and trigger their osteoclastogenic differentiation (FIGS. 8C-D). 5×10^5 BMM were cultured in BMM medium containing about 2×10^6 of PeP or TiP in the presence or absence of Shp2 inhibitor NSC87877 (50 uM). BMM cultured in osteoclast media (DMEM supplemented with 10% FCS, 10 ng/mL M-CSF, and 100 ng/mL RANKL) were used as a positive control. Total RNA was extracted from BMM after 5 days of culture using RNeasy mini kit (Qiagen, Valencia, Calif.). cDNA was synthesized using 1 μg total RNA with iSCRIPT™ cDNA Synthesis Kit (Bio-Rad, Hercules, Calif.) and q-PCR was performed with RT2SYBR® Green qPCR kit (Bio-Rad) on a CFX384 real-time PCR machine. Osteoclastogenic gene expressions in BMM were measured and normalized to Glyceraldehyde 3-phosphate dehydrogenase (GAPDH); their levels were then compared between NSC87877 treated and untreated groups.

Compound	bone ongrowth and shear strength [1]	tumor burden (prostate cancer)	toxicity in vivo (death versus control-treated or untreated mice) [2]	toxicity in vivo (death versus control-treated or untreated mice) ([2]; listed as NSC 87877)	number of osteoclasts (formation of TRAP+ multinucleated osteoclasts) [3]	osteoclast-mediated bone resorption (pits formed on dentin slices) (osteoclasts; BMM from wild type mice in osteoclast medium, NSC-87877 50 μM, 10 days)	ability to resorb bone matrix (pits on dentin slices) (osteoclasts; co-cultured 10 days on dentin slices, FIG. 5: NSC-87877 50 nM, Aldronates 25 nM, or combination)	expression of osteoclastogenic marker genes [4]
NCCCC(O)(P(=O)(O)O)P(=O)(O)O [Alendronate]	increase	–	–	–	–	–	–	–
O=S(=O)(O)c1ccc2cc(/N=N/c3cc(S(=O)(=O)O)c4cccnc4c3O)ccc2c1 [NSC87877]	–	effective in reducing tumor burden	did not die significantly sooner	lack of toxicity	inhibited	formed only a few small pits; also recorded: markedly reduced	inhibited	significantly inhibited
